Patent US20100024572A1, “POLYMER NEMS FOR CELL […] MICRO[…] P[…] FOR MICRO-BIOCALORIMETER” (CALIFORNIA INSTITUTE OF TECHNOLOGY, priority 2006, published 2010)

System: individual adherent cells
Assay: Force measurement from a single adherent cell on microfluidic embedded polymer NEMS force sensor
Assay type: cell-based
Details: 200 pN force resolution, 10 ms time resolution
Source text: Successful micro-fluidic encapsulation is routine and consistently performed at very high yields, (>90%). The force sensing capabilities of the devices have been tested and calibrated by perturbing the force sensors with glass micro-needles mounted on piezo-electric actuators, data shown in FIG. 6A. The force sensors have been tested in micro-fluidics be measuring their response to shear forces generated by fluid flow. The force sensors have been successfully used to measure forces exerted by individual adherent cells and to study the mechanical response of those cells to cytoskeleton perturbing reagents such as Cytochalasin D.
Such measurements were performed with 200 pN force resolution—an improvement of 25 fold over prior art—and 10 ms time resolution—and improvement of 300 fold over prior art.
These measurements were performed with 200 pN force resolution—an improvement of 25 fold over prior art—and 10 ms time resolution—and improvement of 300 fold over prior art.

C=C1[C@@H](C)[C@H]2[C@H](Cc3ccccc3)NC(=O)[C@]23[C@H](OC(C)=O)/C=C/[C@@](C)(O)C(=O)[C@@H](C)C/C=C/[C@H]3[C@@H]1O [Cytochalasin D]
force exerted by a single cell (force vs. time) when Cytochalasin D is removed (after removal of Cytochalasin D): recovery of the force
force exerted by a single cell (force vs. time) when Cytochalasin D is introduced (stable force in growth media before): collapse of that force
